Earlier results in patent US20250131989A1, “LABORATORY CALIBRATION SYSTEM OF MATERIALS FOR USAGE IN SIMULATIONS AND FORECAST OF DISSOLUTION, DISINTEGRATION, DIFFUSION, COMPRESSION, DEFORMATION AND OTHER RELATED MATERIAL PROPERTIES AND CORRESPONDING METHOD THEREOF” (CINCAP GMBH, priority 2021, published 2025).

How the values were obtained:
[1] = key 7 (solubility vs. pH data point); example JSON database record, producer CINCAP
[2] = example JSON database record, producer CINCAP

SMILES: Cn1c(=O)c2[nH]cnc2n(C)c1=O [Theophilline]
- solubility [1]: “solubility”:[{“key”:7, “value”:7.36}],
- diffusivity [2]: “diffusivity”:6.16e−10,
